Assay results from patent US12691070B2, “Cationic lipids and preparation method thereof” (RiboX Therapeutics HK Limited, priority 2023, dated 2026).

How the values were obtained:
Hep G2 cells [1] = test: In vitro toxicity (CellTiter-Glo cell viability), Hep G2; assay type: cell-based; details: cirRNA (SEQ ID NO: 1) LNPs; Hep G2 cells;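 note: percent of untreated cells luminescence signal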
Protocol: (§1) RAW 264.7 and Hep G2 cells were transfected with 1 μg/mL RNA-LNPs. At 72 hours post transfection, cell viability was determined with the CellTiter-Glo® reagent kit, according to the kit protocol, measured by a luminometer.
(§2) The cell viability was calculated according to the following formula: […]

[2] = RNA encapsulation efficacy by Quant-IT Ribogreen kit; assay type: physicochemical; details: LNP with cirRNA (SEQ ID NO: 1)
Protocol: (§3) Ionizable lipid, DSPC, Cholesterol and DMG-PEG 2000 were mixed at a molar ratio of 50:10:38.5:1.5 in absolute ethanol. Circular RNA and linear mRNA payloads were suspended in 25 mM Acetate Buffer (pH 4.5). To form LNPs, three volumes of luciferase encoding RNA, in the form of cirRNA (SEQ ID NO:1) and mRNA (SEQ ID NO:2) respectively, were mixed with one volume of lipids in ethanol solution by microfluidic mixing with the Nanoassemblr Ignite (Precision Nanosystems) at a flow rate of 12 ml/min. The molar ratio of ionizable lipid to ribonucleotide was 15 or 6. The final lipid concentration in solution ranged from 1.5 mM to 6 mM. After encapsulation, the particles were dialyzed twice against PBS.
(§4) The LNP size and polydispersity index (PDI), determined by dynamic light scattering (DLS), and zeta potential were measured by a Zetasizer machine (Malvern). RNA concentration and encapsulation efficacy were analyzed by the Quant-IT Ribogreen kit by calculating the percentage encapsulation at 100%−(RNA-LNPs/RNA-LNPs with Triton X-100).

[3] = LNP zeta potential (Zetasizer); assay type: physicochemical; details: LNP with cirRNA (SEQ ID NO: 1)
Protocol: as §3, §4

RAW 264.7 cells [4] = test: In vitro toxicity (CellTiter-Glo cell viability), RAW 264.7; assay type: cell-based; details: cirRNA (SEQ ID NO: 1) LNPs; RAW 264.7 cells;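 note: percent of untreated cells luminescence signal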
Protocol: as §1, §2

BALB/C mice = test: In vivo expression, whole-body luminescence (IVIS); details: cirRNA (SEQ ID NO: 1) LNPs, BALB/C mice
Protocol: 6-8 week old, female BALB/C mice were injected with 0.05 mg*kg-1 of RNA-LNPs encoding for firefly-luciferase by intravenous injection. At 6 hours post injection, animals were intraperitoneally injected with 15 mg/ml of Luciferin substrate and whole-body luminescence was determined by a bioluminescent in vivo imaging system (IVIS).

Hep G2 cells [5] = test: In vitro expression of firefly-luciferase, Hep G2; assay type: cell-based; details: cirRNA (SEQ ID NO: 1) LNPs; firefly-luciferase luminescence; Hep G2 cells
Protocol: (§5) RAW 264.7 and Hep G2 cells were transfected with 100 ng/mL of RNA-LNPs encoding for firefly-luciferase. At 72 hours post transfection, the cells were washed and lysed. The luciferase expression was determined in the cell lysates with the luciferase assay reagent kit (Promega), according to the kit protocol, luciferase activity was measured by a luminometer.

[6] = LNP size and polydispersity index (PDI) by dynamic light scattering; assay type: physicochemical; details: LNP with cirRNA (SEQ ID NO: 1); for Size: in nm (unit assumed)
Protocol: as §3, §4

RAW 264.7 cells [7] = test: In vitro expression of firefly-luciferase, RAW 264.7; assay type: cell-based; details: cirRNA (SEQ ID NO: 1) LNPs; firefly-luciferase luminescence; RAW 264.7 cells
Protocol: as §5

Row | SMILES | Encapsulation Efficiency % [2] [%] | Zeta (mV) [3] [mV] | PDI [6] | Size [6] | In vitro Viability HepG2 (Hep G2 cells [1]) [%] | In vitro Viability RAW (RAW 264.7 cells [4]) [%] | In vivo Expression (Whole Body) (BALB/C mice) | In vitro Expression HepG2 (Hep G2 cells [5]) | In vitro Expression RAW (RAW 264.7 cells [7])
1 | CCCCCCCCC(CCCCCC)C(=O)OCCCCCCCCN(CCCCCCCCOC(=O)C(CCCCCC)CCCCCCCC)CCOC(=O)NCc1ccc(NC(=O)OC(C)(C)C)cc1 (stereo not drawn) [Lipid 8, ((2-(((4-((tert-butoxycarbonyl)amino)benzyl)carbamoyl)oxy)ethyl)azanediyl)bis(octane-8,1-diyl) bis(2-hexyldecanoate)] | 84 | −20.4 | 0.162 | 80.1 | 110 | 105 | 9.52E+04 | 2.33E+01 | 6.90E+01
2 | CCCCC/C=C\C/C=C\CCCCCCCCN(CCCCCCCC/C=C\C/C=C\CCCCC)CCOC(=O)NCc1ccncc1 [Lipid 35, 2-(di((9Z,12Z)-octadeca-9,12-dien-1-yl)amino)ethyl (pyridin-4-ylmethyl)carbamate] | 71 | −6.298 | 0.115 | 116.3 | 103 | 108 | 1.16E+05 | 2.82E+02 | 6.25E+03
3 | CCCCC/C=C\C/C=C\CCCCCCCCN(CCCCCCCC/C=C\C/C=C\CCCCC)CCOC(=O)NCCN1CCOCC1 [Lipid 36, 2-(di((9Z,12Z)-octadeca-9,12-dien-1-yl)amino)ethyl (2-morpholinoethyl)carbamate] | 96 | −3.556 | 0.138 | 125.4 | 82 | 95 | 1.21E+05 | 9.18E+04 | 2.03E+04
4 | CCCCC/C=C\C/C=C\CCCCCCCCN(CCCCCCCC/C=C\C/C=C\CCCCC)CCOC(=O)NCc1ncc[nH]1 [Lipid 39, 2-(di((9Z,12Z)-octadeca-9,12-dien-1-yl)amino)ethyl ((1H-imidazol-2-yl)methyl)carbamate] | 91 | −3.335 | 0.07 | 169.5 | 90 | 96 | 1.15E+04 | 8.11E+02 | 2.58E+03
5 | CCCCCCCCC(CCCCCC)C(=O)OCCCCCCCCN(CCCCCCCCCCC(=O)OCCCCCC)CCOC(=O)NCCN1CCN(C)CC1 (stereo not drawn) [Lipid 46, hexyl 11-((8-((2-hexyldecanoyl)oxy)octyl)(2-(((2-(4-methylpiperazin-1-yl)ethyl)carbamoyl)oxy)ethyl)amino)undecanoate] | 100 | 3.255 | 0.088 | 137.6 | 102 | 99 | 1.92E+06 | 3.70E+01 | 3.51E+02
6 | CCCCC/C=C\C/C=C\CCCCCCCCN(CCCCCCCC/C=C\CCCCCCCC)CCOC(=O)NCCCN(CC)CC [Lipid 69, 2-(((Z)-octadec-9-en-1-yl)((9Z,12Z)-octadeca-9,12-dien-1-yl)amino)ethyl (3-(diethylamino)propyl)carbamate] | 95 | 16.31 | 0.205 | 161.1 | 86 | 102 | 2.17E+06 | 4.62E+04 | 2.25E+02
7 | CCCCC/C=C\C/C=C\CCCCCCCCN(CCCCCCCC/C=C\CCCCCCCC)CCOC(=O)NCCN1CCN(C)CC1 [Lipid 70, 2-(((Z)-octadec-9-en-1-yl)((9Z,12Z)-octadeca-9,12-dien-1-yl)amino)ethyl (2-(4-methylpiperazin-1-yl)ethyl)carbamate] | 97 | 11.22 | 0.115 | 83.09 | 120 | 104 | 2.08E+05 | 9.79E+04 | 2.29E+03

Further lines, with some results ahead:

Row | Encapsulation Efficiency % [2] [%] | Zeta (mV) [3] [mV] | PDI [6] | Size [6] | SMILES | In vitro Viability HepG2 (Hep G2 cells [1]) [%] | In vitro Viability RAW (RAW 264.7 cells [4]) [%] | In vivo Expression (Whole Body) (BALB/C mice) | In vitro Expression HepG2 (Hep G2 cells [5]) | In vitro Expression RAW (RAW 264.7 cells [7])
8 | 95 | 4.079 | 0.138 | 145.8 | CCCCC/C=C\C/C=C\CCCCCCCCN(CCCCCCCC/C=C\C/C=C\CCCCC)CCOC(=O)NCCN1CCN(C)CC1 [Lipid 37, 2-(di((9Z,12Z)-octadeca-9,12-dien-1-yl)amino)ethyl (2-(4-methylpiperazin-1-yl)ethyl)carbamate] | 87 | 92 | 1.16E+05 | 5.96E+05 | 1.98E+04
9 | 91 | 5.74 | 0.163 | 186 | CCCCC/C=C\C/C=C\CCCCCCCCN(CCCCCCCC/C=C\C/C=C\CCCCC)CCOC(=O)NCCN(C)C [Lipid 41, 2-(di((9Z,12Z)-octadeca-9,12-dien-1-yl)amino)ethyl (2-(dimethylamino)ethyl)carbamate] | 89 | 70 | 4.69E+04 | 2.77E+01 | 1.12E+05
10 | 99 | 8.392 | 0.087 | 142.9 | CCCCC/C=C\C/C=C\CCCCCCCCN(CCCCCCCC/C=C\CCCCCCCC)CCOC(=O)NCCN(C)C [Lipid 67, 2-(((Z)-octadec-9-en-1-yl)((9Z,12Z)-octadeca-9,12-dien-1-yl)amino)ethyl (2-(dimethylamino)ethyl)carbamate] | 120 | 107 | 6.00E+07 | 1.21E+05 | 5.99E+02
11 | 96 | 0.03131 | 0.1484 | 137.8 | CCCCC/C=C\C/C=C\CCCCCCCCN(CCCCCC(=O)OCC(CCCCCCCC)CCCCCCCCCC)CCOC(=O)NCc1ncc[nH]1 (stereo not drawn) [Lipid 76, 2-octyldodecyl 6-((2-((((1H-imidazol-2-yl)methyl)carbamoyl)oxy)ethyl)((9Z,12Z)-octadeca-9,12-dien-1-yl)amino)hexanoate] | 121 | 86 | 2.55E+05 | 1.22E+04 | 5.53E+02
